Data as given in ChEMBL document CHEMBL1201862, “PubChem BioAssay data set” (2004).
One block for each compound: values may come before it. Calls of active or inactive are those of the source.

Key:
Type in all cases: functional
Wee1-like protein kinase = Wee1-like protein kinase (Homo sapiens, UniProt P30291); assay: Navigating the Kinome. Panel member name: WEE1
[1] = target: Cell division cycle 7-related protein kinase (Homo sapiens, UniProt O00311);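 also: value obtained from a kinome-wide kinase panel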
[2] = target: Mast/stem cell growth factor receptor Kit (Homo sapiens, UniProt P10721);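 also: KIT entry within a kinase panel assay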
[3] = target: Mitogen-activated protein kinase 13 (Homo sapiens, UniProt O15264)
[4] = target: Dual specificity protein kinase CLK4 (Homo sapiens, UniProt Q9HAZ1)
[5] = target: cAMP-dependent protein kinase catalytic subunit alpha (Homo sapiens, UniProt P17612)
[6] = target: Interleukin-1 receptor-associated kinase 4 (Homo sapiens, UniProt Q9NWZ3)
[7] = target: Serine/threonine-protein kinase pim-1 (Homo sapiens, UniProt P11309)
[8] = target: Mitogen-activated protein kinase kinase kinase kinase 4 (Homo sapiens, UniProt O95819)
[9] = target: Glycogen synthase kinase-3 beta (Homo sapiens, UniProt P49841);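 also: value comes from a broad kinome profiling panel, with GSK3B as the panel member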
[10] = target: Homeodomain-interacting protein kinase 2 (Homo sapiens, UniProt Q9H2X6);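 also: measured within a kinome-wide kinase profiling panel, HIPK2 being one panel member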
[11] = target: Cyclin-dependent kinase 19 (Homo sapiens, UniProt Q9BWU1); assay: Navigating the Kinome. Panel member name: CDC2L6
[12] = target: Cyclin-dependent kinase 8 (Homo sapiens, UniProt P49336); assay: Navigating the Kinome. Panel member name: CDK8
[13] = target: Neuropeptides B/W receptor type 1 (Homo sapiens, UniProt P48145); assay: GPR7 antagonist potency, late-stage follow-up, cell-based, fluorescence, dose response, set 5 (AID 588566)
[14] = target: Melanin-concentrating hormone receptor 1 (Homo sapiens, UniProt Q99705); assay: Late-stage fluorescence-based counterscreen for antagonists of the G-protein coupled receptor 7 (GPR7): cell-based dose response assay to identify antagonists of the melanin-concentrating hormone receptor 1 (MCHR1) Set 5.

Chain of Cell division cycle 7-related protein kinase (O00311 whole entry): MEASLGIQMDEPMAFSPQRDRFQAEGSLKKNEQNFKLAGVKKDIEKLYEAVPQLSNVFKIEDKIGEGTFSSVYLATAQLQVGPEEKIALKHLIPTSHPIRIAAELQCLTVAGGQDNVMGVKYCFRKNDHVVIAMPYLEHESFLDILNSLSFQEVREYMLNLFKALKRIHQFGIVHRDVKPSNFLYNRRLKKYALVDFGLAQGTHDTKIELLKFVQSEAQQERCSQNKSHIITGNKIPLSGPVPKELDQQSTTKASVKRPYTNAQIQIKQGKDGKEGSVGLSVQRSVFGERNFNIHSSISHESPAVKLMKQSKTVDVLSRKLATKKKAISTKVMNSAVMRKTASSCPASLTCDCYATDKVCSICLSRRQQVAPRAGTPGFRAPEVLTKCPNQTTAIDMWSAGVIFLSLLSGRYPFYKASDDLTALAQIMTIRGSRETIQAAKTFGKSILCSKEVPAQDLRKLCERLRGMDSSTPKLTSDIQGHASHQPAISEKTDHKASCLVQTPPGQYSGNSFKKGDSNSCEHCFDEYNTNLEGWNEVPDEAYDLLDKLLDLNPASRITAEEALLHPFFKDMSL
Chain of Neuropeptides B/W receptor type 1 (P48145 whole entry): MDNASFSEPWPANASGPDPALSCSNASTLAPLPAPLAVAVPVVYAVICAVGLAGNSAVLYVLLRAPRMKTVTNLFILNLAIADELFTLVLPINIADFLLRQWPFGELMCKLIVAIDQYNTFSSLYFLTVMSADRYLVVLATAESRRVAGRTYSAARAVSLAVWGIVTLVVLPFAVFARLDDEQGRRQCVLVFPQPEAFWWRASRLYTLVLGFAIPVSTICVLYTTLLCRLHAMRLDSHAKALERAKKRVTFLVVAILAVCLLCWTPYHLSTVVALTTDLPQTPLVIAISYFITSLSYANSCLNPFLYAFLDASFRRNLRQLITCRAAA
Chain of Interleukin-1 receptor-associated kinase 4 (Q9NWZ3 whole entry): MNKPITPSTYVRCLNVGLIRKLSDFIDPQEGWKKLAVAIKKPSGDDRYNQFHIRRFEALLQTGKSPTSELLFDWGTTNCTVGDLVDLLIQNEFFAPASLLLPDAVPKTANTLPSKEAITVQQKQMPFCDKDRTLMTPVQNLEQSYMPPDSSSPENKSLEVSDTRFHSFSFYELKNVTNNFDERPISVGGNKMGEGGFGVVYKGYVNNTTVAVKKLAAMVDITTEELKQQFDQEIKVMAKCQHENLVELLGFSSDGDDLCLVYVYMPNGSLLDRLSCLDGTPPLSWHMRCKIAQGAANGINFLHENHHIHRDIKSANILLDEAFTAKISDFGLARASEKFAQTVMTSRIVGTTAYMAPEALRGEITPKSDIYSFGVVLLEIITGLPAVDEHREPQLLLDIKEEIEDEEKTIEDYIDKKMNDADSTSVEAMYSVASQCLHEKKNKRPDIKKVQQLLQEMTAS
Chain of Wee1-like protein kinase (P30291 whole entry): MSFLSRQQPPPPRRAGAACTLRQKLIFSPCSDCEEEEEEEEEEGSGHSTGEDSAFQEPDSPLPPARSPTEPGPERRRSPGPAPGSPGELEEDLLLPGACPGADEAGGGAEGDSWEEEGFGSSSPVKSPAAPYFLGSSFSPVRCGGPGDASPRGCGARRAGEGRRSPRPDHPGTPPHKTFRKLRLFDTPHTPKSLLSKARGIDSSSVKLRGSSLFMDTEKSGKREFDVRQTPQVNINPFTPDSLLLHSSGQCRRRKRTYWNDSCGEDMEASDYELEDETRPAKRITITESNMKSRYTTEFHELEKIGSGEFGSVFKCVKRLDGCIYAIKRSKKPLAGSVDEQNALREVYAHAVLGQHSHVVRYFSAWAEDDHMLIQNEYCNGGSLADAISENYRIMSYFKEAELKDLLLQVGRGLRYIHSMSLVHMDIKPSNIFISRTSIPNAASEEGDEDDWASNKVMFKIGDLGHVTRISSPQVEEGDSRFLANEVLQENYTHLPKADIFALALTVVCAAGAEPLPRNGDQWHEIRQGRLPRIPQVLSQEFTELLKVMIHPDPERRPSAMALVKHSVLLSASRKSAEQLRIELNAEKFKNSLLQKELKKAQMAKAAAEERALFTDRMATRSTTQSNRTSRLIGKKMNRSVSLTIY
Chain of Dual specificity protein kinase CLK4 (Q9HAZ1 whole entry): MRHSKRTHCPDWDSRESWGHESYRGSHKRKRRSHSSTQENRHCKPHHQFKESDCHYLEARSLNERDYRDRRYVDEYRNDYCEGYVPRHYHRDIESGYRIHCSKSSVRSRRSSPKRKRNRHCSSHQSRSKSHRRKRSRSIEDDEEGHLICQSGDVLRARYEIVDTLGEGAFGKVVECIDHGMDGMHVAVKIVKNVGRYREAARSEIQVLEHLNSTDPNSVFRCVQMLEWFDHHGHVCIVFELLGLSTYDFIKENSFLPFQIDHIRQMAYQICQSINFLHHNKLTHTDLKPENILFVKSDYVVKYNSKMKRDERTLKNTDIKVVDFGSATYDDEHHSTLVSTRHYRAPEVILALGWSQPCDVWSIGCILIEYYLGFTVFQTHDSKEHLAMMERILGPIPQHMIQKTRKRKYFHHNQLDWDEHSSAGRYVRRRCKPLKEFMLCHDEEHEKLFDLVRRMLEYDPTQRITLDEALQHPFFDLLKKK
Chain of Cyclin-dependent kinase 19 (Q9BWU1 whole entry): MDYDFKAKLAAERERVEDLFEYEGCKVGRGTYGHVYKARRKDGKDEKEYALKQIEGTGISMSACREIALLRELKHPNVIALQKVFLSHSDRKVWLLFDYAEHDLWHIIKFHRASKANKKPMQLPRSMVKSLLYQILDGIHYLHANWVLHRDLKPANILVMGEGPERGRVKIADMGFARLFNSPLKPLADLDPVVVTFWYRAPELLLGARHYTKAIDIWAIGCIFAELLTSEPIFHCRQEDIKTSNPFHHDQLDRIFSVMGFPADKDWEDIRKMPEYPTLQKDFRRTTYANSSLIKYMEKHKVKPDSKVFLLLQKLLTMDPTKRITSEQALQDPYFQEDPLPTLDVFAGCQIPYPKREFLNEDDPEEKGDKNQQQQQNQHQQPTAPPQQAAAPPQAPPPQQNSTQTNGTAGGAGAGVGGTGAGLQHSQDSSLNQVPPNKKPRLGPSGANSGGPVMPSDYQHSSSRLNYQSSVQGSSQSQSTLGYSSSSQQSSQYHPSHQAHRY
Chain of Mitogen-activated protein kinase 13 (O15264 whole entry): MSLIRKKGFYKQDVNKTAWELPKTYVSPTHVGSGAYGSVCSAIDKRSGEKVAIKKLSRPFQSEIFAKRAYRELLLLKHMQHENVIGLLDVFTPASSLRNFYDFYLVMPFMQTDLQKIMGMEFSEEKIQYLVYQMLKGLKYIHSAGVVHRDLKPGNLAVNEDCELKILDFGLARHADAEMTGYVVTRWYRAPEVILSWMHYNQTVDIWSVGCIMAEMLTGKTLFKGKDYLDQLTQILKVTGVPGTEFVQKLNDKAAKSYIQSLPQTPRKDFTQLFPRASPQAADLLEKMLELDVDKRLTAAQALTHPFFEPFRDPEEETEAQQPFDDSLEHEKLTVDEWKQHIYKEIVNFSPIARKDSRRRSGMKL
Chain of Mast/stem cell growth factor receptor Kit (P10721 whole entry): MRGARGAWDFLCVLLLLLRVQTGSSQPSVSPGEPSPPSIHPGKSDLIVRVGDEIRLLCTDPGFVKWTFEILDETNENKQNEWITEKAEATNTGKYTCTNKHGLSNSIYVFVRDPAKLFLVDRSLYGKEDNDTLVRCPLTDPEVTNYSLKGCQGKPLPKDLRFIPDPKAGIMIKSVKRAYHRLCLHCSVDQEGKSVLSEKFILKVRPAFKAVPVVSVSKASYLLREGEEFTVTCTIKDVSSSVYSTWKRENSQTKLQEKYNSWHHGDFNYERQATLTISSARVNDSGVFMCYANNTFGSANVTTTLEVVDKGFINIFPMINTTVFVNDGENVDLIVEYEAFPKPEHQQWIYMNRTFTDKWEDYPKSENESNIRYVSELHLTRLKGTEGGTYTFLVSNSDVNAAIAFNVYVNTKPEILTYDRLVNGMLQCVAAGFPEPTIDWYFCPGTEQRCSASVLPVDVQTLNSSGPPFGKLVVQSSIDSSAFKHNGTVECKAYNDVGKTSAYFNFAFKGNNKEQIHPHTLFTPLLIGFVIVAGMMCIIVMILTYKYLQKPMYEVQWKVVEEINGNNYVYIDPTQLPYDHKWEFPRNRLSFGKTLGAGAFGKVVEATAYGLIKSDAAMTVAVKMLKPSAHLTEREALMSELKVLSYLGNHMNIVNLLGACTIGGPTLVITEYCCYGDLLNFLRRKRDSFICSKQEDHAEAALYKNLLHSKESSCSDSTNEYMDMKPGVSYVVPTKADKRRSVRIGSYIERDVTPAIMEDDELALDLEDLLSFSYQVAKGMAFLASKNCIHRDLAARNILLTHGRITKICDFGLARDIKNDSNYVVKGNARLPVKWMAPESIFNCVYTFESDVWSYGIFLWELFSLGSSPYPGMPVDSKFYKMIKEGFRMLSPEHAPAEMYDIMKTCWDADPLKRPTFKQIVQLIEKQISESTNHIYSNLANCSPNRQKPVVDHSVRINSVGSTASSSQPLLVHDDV
Chain of Cyclin-dependent kinase 8 (P49336 whole entry): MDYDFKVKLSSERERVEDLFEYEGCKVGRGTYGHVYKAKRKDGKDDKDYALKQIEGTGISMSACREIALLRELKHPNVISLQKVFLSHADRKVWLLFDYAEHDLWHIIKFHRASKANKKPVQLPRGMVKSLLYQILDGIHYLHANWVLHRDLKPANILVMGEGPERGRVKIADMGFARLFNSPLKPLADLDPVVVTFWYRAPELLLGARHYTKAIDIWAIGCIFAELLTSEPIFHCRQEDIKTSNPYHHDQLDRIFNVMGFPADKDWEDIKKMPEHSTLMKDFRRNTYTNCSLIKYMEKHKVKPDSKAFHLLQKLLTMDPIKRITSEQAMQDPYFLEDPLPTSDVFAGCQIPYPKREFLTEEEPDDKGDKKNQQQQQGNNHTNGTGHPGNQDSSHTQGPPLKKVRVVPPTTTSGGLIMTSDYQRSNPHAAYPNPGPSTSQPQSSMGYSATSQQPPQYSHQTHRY

Compound: c1cc(NC2CCCCC2)nc(Nc2ccc3cn[nH]c3c2)n1
- Ki (Wee1-like protein kinase): 1000 nM (active)
- Ki [1]: 2000 nM (active)

Compound: COc1cc(-c2nn(C3CCC(N4CCN(C(C)=O)CC4)CC3)c3ncnc(N)c23)ccc1NC(=O)c1cc2ccccc2n1C (stereo unspecified)
- Ki [2]: > 1260 nM (inactive)
- Ki [3]: > 7940 nM (inactive)

Compound: Nc1nsc2cccc(C(=O)Nc3cccc(CNC(=O)Nc4cccc(F)c4)c3)c12
- Ki [11]: > 100000 nM (inactive)
- Ki [12]: 3980 nM (active)

Results, then the compound that gave them:

- Ki [4]: 10 nM (active)
- Ki [5]: 2000 nM (active)
- Ki [6]: 63.1 nM (active)
- Ki [7]: 3980 nM (active)
- Ki [8]: 39.8 nM (active)
- Ki [9]: 158 nM (active)
- Ki [10]: 200 nM (active)
- Ki [1]: 12.6 nM (active)
Compound: NC(=O)c1ccc(Nc2ncnc3[nH]cc(-c4ccccc4)c23)cc1

- IC50 [13]: > 20000 nM (inactive)
- IC50 [14]: 17600 nM (inactive)
Compound: CCOC(=O)C(c1ccccn1)c1c(Cl)cnn(Cc2cccc3ccccc23)c1=O (stereo unspecified)
